According to ChEMBL document CHEMBL1201862, “PubChem BioAssay data set” (2004):
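1) Cells in 96-well plates. 2) Compound, 48 h, 5 concentrations. 3) Linear interpolation between surrounding doses. 4) Unreached endpoint = highest concentration. Abbreviation: GI50, concentration required for 50% inhibition of growth.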 The source made the active and inactive calls. No stated cut-off is given here; in the data, active = GI50 up to about 1.1 µM and inactive = higher.

Key:
Experiment in all cases: DTP human tumour cell line panel, 48 h
A549 = test system: A549
ACHN = test system: ACHN
CAKI-1 = test system: CAKI-1
HCT-116 = test system: HCT-116
HOP-92 = test system: HOP-92
Hs-578T = test system: Hs-578T
MCF7 = test system: MCF7
MDA-MB-435 = test system: MDA-MB-435
NCI-H23 = test system: NCI-H23
NCI-H522 = test system: NCI-H522
NCI/ADR-RES = test system: NCI/ADR-RES
OVCAR-5 = test system: OVCAR-5
OVCAR-8 = test system: OVCAR-8
SK-MEL-28 = test system: SK-MEL-28
SN12C = test system: SN12C
SNB-75 = test system: SNB-75
SW-620 = test system: SW-620
TK-10 = test system: TK-10
UACC-257 = test system: UACC-257
UACC-62 = test system: UACC-62

Measured: GI50

O=CN1CCN(C(=O)c2cc(Cl)cc(Cl)c2)C1=S
inactive: A549 20.8 µM | ACHN 16.9 µM | CAKI-1 13.3 µM | HCT-116 18.6 µM | HOP-92 17.9 µM | Hs-578T 21 µM | MCF7 3.47 µM | MDA-MB-435 14.2 µM | NCI-H23 17.2 µM | NCI-H522 3.5 µM | NCI/ADR-RES 28.9 µM | OVCAR-5 21.9 µM | OVCAR-8 19.1 µM | SK-MEL-28 18.4 µM | SN12C 15.6 µM | SNB-75 13.3 µM | SW-620 19 µM | TK-10 15.3 µM | UACC-257 17.4 µM | UACC-62 15.8 µM

ON=C1CCCCC(=NO)CCCC1
inactive: A549 > 100 µM | ACHN > 100 µM | CAKI-1 > 100 µM | HCT-116 > 100 µM | HOP-92 > 100 µM | Hs-578T > 100 µM | MCF7 > 100 µM | MDA-MB-435 > 100 µM | NCI-H23 > 100 µM | NCI-H522 > 100 µM | NCI/ADR-RES > 100 µM | OVCAR-8 > 100 µM | SK-MEL-28 > 100 µM | SN12C > 100 µM | SNB-75 > 100 µM | SW-620 > 100 µM | TK-10 > 100 µM | UACC-257 > 100 µM | UACC-62 > 100 µM

C=CCC1(O)c2cccc(O)c2C(=O)c2c(O)cccc21
inactive: A549 24 µM | ACHN 32.5 µM | CAKI-1 31.2 µM | HCT-116 23.1 µM | HOP-92 28.1 µM | Hs-578T 24.4 µM | MCF7 30.1 µM | MDA-MB-435 9.51 µM | NCI-H23 24.7 µM | NCI-H522 23.8 µM | NCI/ADR-RES 18.9 µM | OVCAR-5 35.2 µM | OVCAR-8 32.2 µM | SK-MEL-28 31.7 µM | SNB-75 21.1 µM | SW-620 31.6 µM | TK-10 32.7 µM | UACC-257 23 µM

Cn1c2c(c3ccccc31)CCN1C(=O)CCC21 (configuration not stated)
inactive: ACHN > 10 µM | CAKI-1 > 10 µM | HOP-92 > 10 µM | Hs-578T > 10 µM | MCF7 > 10 µM | MDA-MB-435 > 10 µM | NCI-H23 > 10 µM | NCI-H522 > 10 µM | NCI/ADR-RES > 10 µM | OVCAR-5 > 10 µM | OVCAR-8 > 10 µM | SK-MEL-28 > 10 µM | SN12C > 10 µM | SNB-75 > 10 µM | SW-620 > 10 µM | TK-10 > 10 µM | UACC-257 > 10 µM

Cn1c(=O)c2nc(CSCc3ccccc3)[nH]c2n(C)c1=O
inactive: A549 45.6 µM | ACHN > 100 µM | CAKI-1 > 100 µM | HCT-116 > 100 µM | HOP-92 > 100 µM | Hs-578T > 100 µM | MCF7 > 100 µM | MDA-MB-435 > 100 µM | NCI-H23 > 100 µM | NCI-H522 35.6 µM | NCI/ADR-RES > 100 µM | OVCAR-5 > 100 µM | OVCAR-8 > 100 µM | SK-MEL-28 > 100 µM | SN12C 80.5 µM | SNB-75 > 100 µM | TK-10 > 100 µM | UACC-257 > 100 µM | UACC-62 > 100 µM

CC#CC#C/C=C1/C=CC2(CCCCO2)O1 (configuration not stated)
inactive: A549 > 100 µM | CAKI-1 > 100 µM | HCT-116 > 100 µM | HOP-92 > 100 µM | Hs-578T > 100 µM | MCF7 94.4 µM | MDA-MB-435 > 100 µM | NCI-H23 > 100 µM | NCI-H522 40.1 µM | NCI/ADR-RES > 100 µM | OVCAR-5 > 100 µM | OVCAR-8 > 100 µM | SK-MEL-28 > 100 µM | SN12C > 100 µM | SNB-75 > 100 µM | SW-620 > 100 µM | TK-10 > 100 µM | UACC-257 > 100 µM | UACC-62 86.5 µM

Cc1cc(=O)n2nc(SCc3ccccc3)sc2n1
inactive: A549 > 100 µM | ACHN 22.8 µM | HCT-116 > 100 µM | HOP-92 94.8 µM | Hs-578T 25.4 µM | MCF7 > 100 µM | MDA-MB-435 66.4 µM | NCI-H23 > 100 µM | NCI-H522 > 100 µM | NCI/ADR-RES > 100 µM | OVCAR-5 > 100 µM | OVCAR-8 > 100 µM | SK-MEL-28 > 100 µM | SN12C > 100 µM | SNB-75 > 100 µM | SW-620 > 100 µM | TK-10 34.4 µM | UACC-62 28.4 µM

CC(=O)/C=c1\[nH]/c(=C\C=C\c2ccccc2)c(=O)n1/C=C1\C(=O)Oc2ccccc2C1=O
inactive: A549 > 100 µM | ACHN > 100 µM | CAKI-1 > 100 µM | HCT-116 > 100 µM | HOP-92 > 100 µM | Hs-578T > 100 µM | MCF7 > 100 µM | MDA-MB-435 > 100 µM | NCI-H23 > 100 µM | NCI-H522 > 100 µM | NCI/ADR-RES > 100 µM | OVCAR-5 > 100 µM | OVCAR-8 > 100 µM | SK-MEL-28 > 100 µM | SNB-75 59.4 µM | SW-620 > 100 µM | TK-10 > 100 µM | UACC-257 > 100 µM | UACC-62 > 100 µM

N#CC(C#N)=CNCCN1CCN(C=C(C#N)C#N)CC1
inactive: A549 > 100 µM | ACHN > 100 µM | CAKI-1 > 100 µM | HCT-116 > 100 µM | HOP-92 > 100 µM | Hs-578T > 100 µM | MCF7 > 100 µM | MDA-MB-435 > 100 µM | NCI-H23 > 100 µM | NCI-H522 > 100 µM | NCI/ADR-RES > 100 µM | OVCAR-5 > 100 µM | OVCAR-8 > 100 µM | SK-MEL-28 > 100 µM | SN12C > 100 µM | SW-620 > 100 µM | TK-10 > 100 µM | UACC-257 > 100 µM | UACC-62 > 100 µM

Cn1c([C@H](C#N)c2ncccc2[N+](=O)[O-])nc2ccccc21
inactive: A549 83.9 µM | ACHN > 100 µM | CAKI-1 > 100 µM | HCT-116 > 100 µM | HOP-92 89.1 µM | Hs-578T 29.9 µM | MCF7 21 µM | MDA-MB-435 > 100 µM | NCI-H23 59 µM | NCI-H522 14.4 µM | NCI/ADR-RES 78.2 µM | OVCAR-5 > 100 µM | OVCAR-8 49.3 µM | SK-MEL-28 > 100 µM | SNB-75 28.2 µM | SW-620 > 100 µM | TK-10 > 100 µM | UACC-257 > 100 µM | UACC-62 > 100 µM
